From PubChem BioAssay (NCI)
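Briefly, cells in 96-well plates were exposed to five compound concentrations for 48 h, and endpoints were estimated by linear interpolation. At the GI50, growth is halved. TGI is the concentration that stops growth completely.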

Tests used:
Assay in all cases: NCI-60 cell line screen, 48 h
OVCAR-4 ovarian = test system: OVCAR-4 ovarian
MDA-MB-435 = test system: MDA-MB-435
HCT-15 colon = test system: HCT-15 colon
MOLT-4 leukemia = test system: MOLT-4 leukemia
K-562 leukemia = test system: K-562 leukemia
UACC-257 melanoma = test system: UACC-257 melanoma
HT29 colon = test system: HT29 colon
SNB-19 CNS = test system: SNB-19 CNS
PC-3 prostate = test system: PC-3 prostate
HL-60(TB) leukemia = test system: HL-60(TB) leukemia

| SMILES | TGI (OVCAR-4 ovarian) [µM] | TGI (MDA-MB-435) [µM] | TGI (HCT-15 colon) [µM] | TGI (MOLT-4 leukemia) [µM] | TGI (K-562 leukemia) [µM] | TGI (UACC-257 melanoma) [µM] | TGI (HT29 colon) [µM] | TGI (SNB-19 CNS) [µM] | TGI (PC-3 prostate) [µM] | TGI (HL-60(TB) leukemia) [µM] | GI50 (HCT-15 colon) [µM] | GI50 (OVCAR-4 ovarian) [µM] | GI50 (MDA-MB-435) [µM] | GI50 (MOLT-4 leukemia) [µM] | GI50 (K-562 leukemia) [µM] | GI50 (UACC-257 melanoma) [µM] | GI50 (HT29 colon) [µM] | GI50 (HL-60(TB) leukemia) [µM] | GI50 (PC-3 prostate) [µM] |
| --- | --- | --- | --- | --- | --- | --- | --- | --- | --- | --- | --- | --- | --- | --- | --- | --- | --- | --- | --- |
| N#CCCN(CCC#N)c1ccc(C(N=Nc2ccccc2)=Nc2ccc(F)cc2)cc1 | > 100 | > 100 | > 100 | > 100 | > 100 | > 100 | > 100 | > 100 | > 100 | – | – | – | – | – | – | – | – | – | – |
| CNC(=S)N1CCN(C(C)=O)C1=S | 32.1 | > 100 | > 100 | > 100 | > 100 | > 100 | > 100 | – | – | > 100 | – | – | – | – | – | – | – | – | – |
| O=C(c1ccco1)N(C(=O)N1CCC(c2ccccc2)CC1)c1ccccc1 | – | > 100 | > 100 | 54.2 | > 100 | > 100 | > 100 | > 100 | > 100 | 65.9 | – | – | – | – | – | – | – | – | – |
| C=C1[C@@H]2CCC3[C@]4(C)C(CC[C@@]5(C)C(=O)O[C@H](O)[C@@H]45)[C@H](O)[C@]3(C2)[C@H]1OC1OC(CO)C(O)C(O)C1O (stereo partly specified) | > 50 | – | > 50 | > 50 | > 50 | > 50 | > 50 | > 50 | > 50 | > 50 | – | – | – | – | – | – | – | – | – |
| COc1cc2c(c(OC)c1)[C@H](C)N(Cc1ccccc1)C(C)C2 (stereo partly specified) | – | 37.8 | > 100 | > 100 | > 100 | > 100 | 75.2 | > 100 | > 100 | 24.8 | – | – | – | – | – | – | – | – | – |
| COc1cc(/C=N/N=C(\N)NO)c([N+](=O)[O-])cc1OC | > 100 | – | > 100 | > 100 | > 100 | > 100 | > 100 | > 100 | – | 56 | – | – | – | – | – | – | – | – | – |
| Cc1nc2c(=O)n(-c3ccccc3)c(=O)n(-c3ccccc3)c2o1 | > 100 | > 100 | > 100 | > 100 | > 100 | > 100 | > 100 | > 100 | > 100 | – | – | – | – | – | – | – | – | – | – |
| CC[C@]12C=CCN3CCC4(c5cc([C@@]6(C(=O)OC)CC7CN(CCc8c6[nH]c6ccccc86)CC6CCCCC67)c(OC)cc5N(C)C4[C@](O)(C(=O)OC)C1OC(C)=O)[C@@H]32 (stereo partly specified) | 18.3 | < 0.01 | 20.1 | – | > 21.7 | 18.8 | < 0.01 | 15.4 | 0.393 | > 100 | 0.693 | – | – | – | – | – | – | – | – |
| C=C1C[C@@H]2O[C@H]3[C@H]4[C@@H](C[C@@H](C)[C@@H](OC(C)=O)[C@H]42)[C@@H](C)CO[C@@]3(C)[C@H](OC(=O)CCCCCCC)CC1=O | – | 30.8 | 28.9 | 40.8 | – | 30.7 | > 100 | > 100 | 22.5 | – | – | – | – | – | – | – | – | – | – |
| CSc1nc(Cl)c2c(n1)Sc1nc3ccccc3n1C2O (stereo unspecified) | > 100 | > 44.2 | > 40.2 | > 100 | > 100 | > 100 | 25.4 | 97.1 | > 100 | – | – | – | – | – | – | – | – | – | – |
| CC(C)(C)N=NC(C)(C)N=C=O | > 100 | – | > 100 | > 100 | > 100 | > 100 | > 100 | > 100 | – | > 100 | – | – | – | – | – | – | – | – | – |
| c1cncc(CSc2nc3ccccc3nc2-c2cccs2)c1 | > 100 | – | > 100 | 98.7 | > 100 | > 100 | > 100 | > 100 | – | 47.9 | – | – | – | – | – | – | – | – | – |
| C[As+](C)(c1ccc(Br)c([N+](=O)[O-])c1)c1ccc(Br)c([N+](=O)[O-])c1.O=[N+]([O-])O | > 100 | > 100 | > 100 | > 100 | > 100 | > 100 | > 100 | > 100 | > 100 | – | – | – | – | – | – | – | – | – | – |
| OC(CC(O)(C(F)(F)Cl)C(F)(F)Cl)c1ccccc1 (stereo unspecified) | > 10 | – | > 10 | > 10 | > 10 | > 10 | > 10 | > 10 | > 10 | > 10 | – | – | – | – | – | – | – | – | – |
| CC(C)=C/C(CC(O)(C(F)(F)F)C(F)(F)F)=N\O | > 100 | > 100 | > 100 | > 100 | > 100 | > 100 | > 100 | > 100 | – | > 100 | – | – | – | – | – | – | – | – | – |
| CCN(CC)CCCCNc1c2ccc(Cl)cc2nc2ccc(OC)cc12 | 2.44 | 2.31 | 1.62 | 2.79 | 3.56 | 3.91 | 1.27 | – | 2.74 | 3.2 | 0.289 | 0.364 | 1.05 | 0.306 | 0.578 | 1.8 | 0.141 | 1.03 | 0.482 |
| CC(=N/NC(=S)N(C)C)/C(=N\NC(=S)N(C)C)c1ccccc1 | 3.74 | 3.56 | 4.36 | > 100 | > 100 | 4.19 | 9.46 | 6.85 | 4.64 | – | – | – | – | – | – | – | – | – | – |

| SMILES | TGI (OVCAR-4 ovarian) [µM] | TGI (MDA-MB-435) [µM] | TGI (HCT-15 colon) [µM] | TGI (MOLT-4 leukemia) [µM] | TGI (K-562 leukemia) [µM] | TGI (UACC-257 melanoma) [µM] | TGI (HT29 colon) [µM] | TGI (SNB-19 CNS) [µM] | TGI (PC-3 prostate) [µM] | TGI (HL-60(TB) leukemia) [µM] | GI50 (HCT-15 colon) [µM] | GI50 (OVCAR-4 ovarian) [µM] | GI50 (MDA-MB-435) [µM] | GI50 (MOLT-4 leukemia) [µM] | GI50 (K-562 leukemia) [µM] | GI50 (UACC-257 melanoma) [µM] | GI50 (HT29 colon) [µM] | GI50 (HL-60(TB) leukemia) [µM] | GI50 (PC-3 prostate) [µM] |
| --- | --- | --- | --- | --- | --- | --- | --- | --- | --- | --- | --- | --- | --- | --- | --- | --- | --- | --- | --- |
| CN(C)CCCNC(=O)N/N=C/c1ccccc1 | – | – | > 100 | > 100 | > 100 | > 100 | > 100 | > 100 | – | > 100 | – | – | – | – | – | – | – | – | – |
| CCOC(=O)c1c(SCc2cc(=O)[nH]c(=O)[nH]2)n(-c2ccccc2)c(=S)n(-c2ccccc2)c1=O | – | > 100 | > 100 | > 100 | > 100 | > 100 | > 100 | > 100 | > 100 | – | – | – | – | – | – | – | – | – | – |
| CC(C)=CCC[C@@H](C)C1=C(Nc2ccccc2F)C(O)=C(C)C(=O)C1=O | > 100 | > 100 | > 70.6 | > 67.8 | > 100 | > 100 | 24.3 | > 100 | > 100 | – | – | – | – | – | – | – | – | – | – |
| O=[N+]([O-])c1ccc(-c2csc(=[N+]3CCCCC3)s2)cc1 | 81.4 | – | > 100 | > 60.9 | > 100 | 31.4 | > 100 | > 100 | – | > 86.6 | – | – | – | – | – | – | – | – | – |
| CNC(=O)CN(CC(=O)O)C(=O)NC | > 100 | – | > 100 | > 100 | > 100 | > 100 | > 100 | > 100 | – | > 100 | – | – | – | – | – | – | – | – | – |
| CC(=O)Oc1ccc2c(-c3ccccc3)c(Oc3ccc(Cl)cc3)c(=O)oc2c1 | 35.8 | – | 10 | 34.7 | 31.6 | 37.8 | 39.8 | 30 | 37.7 | > 100 | – | – | – | – | – | – | – | – | – |
| CN1C2=Nc3n(c4ccccc4[n+]3C)CN2c2ccccc21 | – | 91 | > 100 | > 100 | > 100 | > 100 | > 100 | > 100 | > 100 | > 100 | – | – | – | – | – | – | – | – | – |
| CC(=O)/C(=N\Nc1ccc(Cl)cc1)C(C)=Nc1ccc(C)cc1 | > 100 | > 100 | > 100 | > 100 | > 100 | > 100 | 61.3 | > 100 | > 100 | – | – | – | – | – | – | – | – | – | – |
| Oc1ccccc1/C=N/N1C(=S)N(C23CC4CC(CC(C4)C2)C3)C(=Nc2ccccc2)C1=Nc1ccccc1 | – | > 100 | > 100 | > 100 | > 100 | > 100 | > 100 | > 100 | > 100 | – | – | – | – | – | – | – | – | – | – |
| CCCCNC(=O)Cn1c2ccc(Br)cc2c2nc3ccccc3nc21 | – | > 100 | – | > 100 | > 100 | > 100 | > 100 | > 100 | > 100 | – | – | – | – | – | – | – | – | – | – |
| O=C(NC(C(F)(F)F)(C(F)(F)F)P(=O)(Cc1ccccc1)Cc1ccccc1)C(C(F)(F)F)C(F)(F)F | – | 34.3 | > 100 | 55.1 | > 100 | 46.5 | 45.4 | 59.4 | 49 | 71.3 | – | – | – | – | – | – | – | – | – |
| O=C1Nc2cc(F)ccc2C1=O | > 100 | – | > 100 | > 100 | > 100 | > 100 | > 100 | > 100 | – | > 100 | – | – | – | – | – | – | – | – | – |
| O=C1CSC(c2c[nH]c3ccccc23)N1c1ccc(Cl)cc1Cl (stereo unspecified) | > 100 | – | > 100 | > 100 | > 100 | > 100 | > 100 | > 100 | > 100 | > 100 | – | – | – | – | – | – | – | – | – |
| COc1ccc(C2c3cc4c(cc3OC(Nc3ccccc3)C2C)OCO4)cc1 (stereo unspecified) | – | > 100 | > 100 | > 100 | > 100 | > 100 | > 100 | > 100 | > 100 | 59.3 | – | – | – | – | – | – | – | – | – |
| NCCCCNCCCN1CCOC1=O | – | > 100 | > 100 | > 100 | > 100 | > 100 | > 100 | > 100 | > 100 | > 100 | – | – | – | – | – | – | – | – | – |
| Nc1c(N2CCOCC2)c(=O)nc2[nH]/c(=C\c3ccccc3O)c(=O)n12 | > 100 | > 100 | > 100 | > 100 | > 100 | > 100 | > 100 | > 100 | – | > 100 | – | – | – | – | – | – | – | – | – |
| COc1cc2c(cc1OCc1ccccc1)NC(=O)[C@@H]1CCCN1C2=O | > 100 | > 100 | > 100 | > 100 | > 100 | > 100 | > 100 | > 100 | > 100 | – | – | – | – | – | – | – | – | – | – |
